Molecular target: T1, human NaV1.6 (hNaV1.6) (Homo sapiens, UniProt Q9UQD0)
T1 construct: expressed in transfected cells; host or cells: HEK-293
Assay: Modulation of late sodium current (INaL), PatchXpress high throughput electrophysiology
Type: cell-based
Conditions: HEK293, HEK-293 cells expressing recombinant human NaV1.6, late current evoked by 300 nM ATX-II, read-out: NaV 1.6 Assay Data (percent inhibition of INaL at hNaV1.6)
Description: Functional characterization of exemplary compounds to modulate INaL expressed by the NaV1.6 voltage-gated sodium channel was accomplished using the PatchXpress™ high throughput electrophysiology platform (Molecular Devices, Sunnyvale, CA). HEK-293 cells expressing recombinant, human NaV1.6 (hNaV1.6) were grown in DMEM/high-glucose Dulbecco's modified, 10% FBS, 2 mM sodium pyruvate, 10 mM HEPES and 400 μg/mL G418. Cells were grown to 50%-80% confluency prior to harvesting. Trypsinized cells were washed, allowed to recover for 1 hour and then resuspended in extracellular recording solution at a concentration of 1×10^6 cells/ml. The onboard liquid handling facility of the PatchXpress was used for dispensing cells and applying test compounds. NaV late currents were evoked by the application of 300 nM ATX-II. INaL was evoked by depolarizing pulses to 0 mV for 200 ms from a non-inactivating holding potential (e.g., −120 mV) at a frequency of 0.1 Hz. INaL amplitude and stability were determined by analyzing the mean current amplitude over the final 20 ms of thetest pulse. Following steady state block with exemplary compounds (e.g., as described herein), a Na+ free solution containing an impermeant cation (e.g., Choline or NDMG) was added to confirm the identify of the sodium current. Percent steady-state inhibition of INaL was calculated as: [(INaL_compound)/(INaL_control)]*100, where INaL_compound and INaL_control represent INaL recorded in the presence or absence of compound, respectively.

T1 sequence (Q9UQD0 whole entry): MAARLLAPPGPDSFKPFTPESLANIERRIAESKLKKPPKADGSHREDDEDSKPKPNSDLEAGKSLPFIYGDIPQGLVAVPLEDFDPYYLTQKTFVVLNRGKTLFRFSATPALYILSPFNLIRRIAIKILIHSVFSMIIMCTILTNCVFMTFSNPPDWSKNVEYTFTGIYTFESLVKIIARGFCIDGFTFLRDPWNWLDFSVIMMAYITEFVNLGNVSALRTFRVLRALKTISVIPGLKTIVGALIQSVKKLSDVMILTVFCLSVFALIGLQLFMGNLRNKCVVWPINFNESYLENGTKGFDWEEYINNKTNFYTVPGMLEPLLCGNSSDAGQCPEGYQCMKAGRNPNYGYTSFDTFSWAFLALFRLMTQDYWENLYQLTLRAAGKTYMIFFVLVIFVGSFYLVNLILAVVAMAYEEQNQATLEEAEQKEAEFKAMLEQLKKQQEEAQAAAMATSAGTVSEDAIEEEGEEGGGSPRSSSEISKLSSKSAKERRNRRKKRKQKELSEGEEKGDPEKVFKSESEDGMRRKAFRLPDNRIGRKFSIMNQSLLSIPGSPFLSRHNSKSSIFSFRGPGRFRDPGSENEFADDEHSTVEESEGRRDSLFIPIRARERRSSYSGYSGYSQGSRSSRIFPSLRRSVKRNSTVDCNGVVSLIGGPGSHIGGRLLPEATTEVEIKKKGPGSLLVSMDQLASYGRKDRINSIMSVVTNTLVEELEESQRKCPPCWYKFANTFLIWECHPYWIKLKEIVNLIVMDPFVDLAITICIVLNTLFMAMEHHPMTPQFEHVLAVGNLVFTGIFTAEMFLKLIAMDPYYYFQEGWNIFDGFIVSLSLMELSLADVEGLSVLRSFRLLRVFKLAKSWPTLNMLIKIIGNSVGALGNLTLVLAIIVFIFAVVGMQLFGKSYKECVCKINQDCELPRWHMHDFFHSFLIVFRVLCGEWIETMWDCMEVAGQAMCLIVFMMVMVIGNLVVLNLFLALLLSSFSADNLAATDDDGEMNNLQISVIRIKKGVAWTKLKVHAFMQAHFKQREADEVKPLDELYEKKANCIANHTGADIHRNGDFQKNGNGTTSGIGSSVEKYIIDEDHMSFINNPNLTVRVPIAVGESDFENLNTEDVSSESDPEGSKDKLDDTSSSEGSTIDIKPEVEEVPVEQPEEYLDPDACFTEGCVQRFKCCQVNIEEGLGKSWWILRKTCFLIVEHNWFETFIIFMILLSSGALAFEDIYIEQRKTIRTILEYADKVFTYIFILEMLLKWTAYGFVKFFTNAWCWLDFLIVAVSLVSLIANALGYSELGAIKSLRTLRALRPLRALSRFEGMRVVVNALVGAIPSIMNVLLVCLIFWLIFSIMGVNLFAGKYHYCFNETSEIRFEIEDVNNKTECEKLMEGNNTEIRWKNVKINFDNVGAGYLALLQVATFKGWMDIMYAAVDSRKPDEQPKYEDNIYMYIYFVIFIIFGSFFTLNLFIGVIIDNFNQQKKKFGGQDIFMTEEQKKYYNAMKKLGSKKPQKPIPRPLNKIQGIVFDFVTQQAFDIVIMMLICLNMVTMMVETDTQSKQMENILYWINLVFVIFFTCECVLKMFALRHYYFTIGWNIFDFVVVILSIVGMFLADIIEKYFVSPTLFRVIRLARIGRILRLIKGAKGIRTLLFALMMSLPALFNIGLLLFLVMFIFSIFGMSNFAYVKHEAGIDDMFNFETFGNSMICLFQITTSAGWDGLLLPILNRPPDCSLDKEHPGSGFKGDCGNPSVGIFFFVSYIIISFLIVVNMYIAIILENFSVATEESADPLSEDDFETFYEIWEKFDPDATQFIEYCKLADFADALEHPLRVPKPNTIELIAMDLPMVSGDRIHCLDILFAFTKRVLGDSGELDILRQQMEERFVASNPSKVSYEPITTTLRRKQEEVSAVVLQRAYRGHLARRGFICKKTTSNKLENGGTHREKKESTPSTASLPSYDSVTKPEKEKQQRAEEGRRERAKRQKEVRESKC

| SMILES | inhibition at 1 µM |
| --- | --- |
| CCOC(F)(F)c1nnc2cnc(-c3ccc(O[C@H](C)C(F)(F)F)cc3C)cn12 (single isomer, unassigned) [Compound 29] | > 70% |
| Cc1cc(OC(F)(F)F)ccc1-c1cn2c(C(F)(F)OCC3CC3)nnc2cn1 [Compound 18, 3-[cyclopropylmethoxy(difluoro)methyl]-6-[2-methyl-4-(trifluoromethoxy)phenyl]-[1,2,4]triazolo[4,3-a]pyrazine] | > 70% |
| CCOC(F)(F)c1nnc2ccc(-c3ccc(OC(F)(F)F)cc3C)nn12 [Compound 15, 3-[ethoxy(difluoro)methyl]-6-[2-methyl-4-(trifluoromethoxy)phenyl]-[1,2,4]triazolo[4,3-b]pyridazine] | < 30% |
| COCc1nnc2cnc(-c3ccc(OC(F)(F)F)cc3C)cn12 [Compound 3, 3-(methoxymethyl)-6-[2-methyl-4-(trifluoromethoxy)phenyl]-[1,2,4]triazolo[4,3-a]pyrazine] | < 30% |
| COC(F)(F)c1nnc2cnc(-c3ccc(OC(C)C)cc3C)cn12 [Compound 22, 3-(difluoro(methoxy)methyl)-6-(4-isopropoxy-2-methylphenyl)-[1,2,4]triazolo [4,3-a]pyrazine] | 30 to 70% |
| COCc1cc(OC(F)(F)F)ccc1-c1cn2c(COC)nnc2cn1 [Compound 17, 3-(methoxymethyl)-6-[2-(methoxymethyl)-4-(trifluoromethoxy)phenyl]-[1,2,4] triazolo[4,3-a]pyrazine] | < 30% |
| COC(F)(F)c1nnc2cnc(-c3ccc(OC(C)C)cc3)cn12 [Compound 24, 3-(difluoro(methoxy)methyl)-6-(4-isopropoxyphenyl)-[1,2,4]triazolo[4,3-a]pyrazine] | > 70% |
| CCOC(F)(F)c1nnc2cnc(-c3ccc(OC(C)C)cc3C)cn12 [Compound 23, 3-(ethoxydifluoromethyl)-6-(4-isopropoxy-2-methylphenyl)-[1,2,4]triazolo[4,3-a]pyrazine] | 30 to 70% |
| Cc1cc(OC(F)(F)F)ccc1-c1cn2c(COCC(C)C)nnc2cn1 [Compound 7, 3-(isobutoxymethyl)-6-(2-methyl-4-(trifluoromethoxy)phenyl)-[1,2,4]triazolo[4,3-a]pyrazine] | 30 to 70% |
| Cc1cc(OC(F)(F)F)ccc1-c1cn2c(COC3CC3)nnc2cn1 [Compound 20, 3-(cyclopropoxymethyl)-6-[2-methyl-4-(trifluoromethoxy)phenyl]-[1,2,4]triazolo[4,3-a]pyrazine] | 30 to 70% |
| CCOC(F)(F)c1nnc2cnc(-c3ccc(OC4CC(F)(F)C4)cc3C)cn12 [Compound 38, 6-[4-(3,3-difluorocyclobutoxy)-2-methyl-phenyl]-3-[ethoxy(difluoro)methyl]-[1,2,4]triazolo[4,3-a]pyrazine] | > 70% |
| CCOCc1nnc2ccc(-c3ccc(OC(F)(F)F)cc3C)nn12 [Compound 13, 3-(ethoxymethyl)-6-[2-methyl-4-(trifluoromethoxy)phenyl]-[1,2,4]triazolo[4,3-b]pyridazine] | < 30% |
| COC(F)(F)c1nnc2ccc(-c3ccc(OC(F)(F)F)cc3C)nn12 [Compound 14, 3-[difluoro(methoxy)methyl]-6-[2-methyl-4-(trifluoromethoxy)phenyl]-[1,2,4]triazolo[4,3-b]pyridazine] | 30 to 70% |
| CCOC(C)(C)c1nnc2cnc(-c3ccc(OC(F)(F)F)cc3C)cn12 [Compound 41, 3-(1-ethoxy-1-methyl-ethyl)-6-[2-methyl-4-(trifluoromethoxy)phenyl]-[1,2,4]triazolo[4,3-a]pyrazine] | < 30% |
| COC(F)(F)c1nnc2cnc(-c3c(C)cc(OC(F)(F)F)cc3F)cn12 [Compound 43, 3-[difluoro(methoxy)methyl]-6-[2-fluoro-6-methyl-4-(trifluoromethoxy)phenyl]-[1,2,4]triazolo[4,3-a]pyrazine] | 30 to 70% |
| Cc1cc(OC(F)(F)F)ccc1-c1cn2c(COCc3ccccc3)nnc2cn1 [Compound 6, 3-((benzyloxy)methyl)-6-(2-methyl-4-(trifluoromethoxy)phenyl)-[1,2,4]triazolo[4,3-a]pyrazine] | > 70% |
| CCOC(F)(F)c1nnc2cnc(-c3ccc(OC4CC(F)(F)C4)cc3)cn12 [Compound 37, 6-[4-(3,3-difluorocyclobutoxy)phenyl]-3-[ethoxy(difluoro)methyl]-[1,2,4]triazolo[4,3-a]pyrazine] | > 70% |
| CCOC(F)(F)c1nnc2cnc(-c3ccc(OC(C)C)cc3)cn12 [Compound 25, 3-(ethoxydifluoromethyl)-6-(4-isopropoxyphenyl)-[1,2,4]triazolo[4,3-a]pyrazine] | > 70% |
| COC(F)(F)c1nnc2cnc(-c3cc(F)c(OC(F)(F)F)cc3C)cn12 [Compound 40, 3-[difluoro(methoxy)methyl]-6-[5-fluoro-2-methyl-4-(trifluoromethoxy)phenyl]-[1,2,4]triazolo[4,3-a]pyrazine] | > 70% |
| COC(F)(F)c1nnc2cnc(-c3cc(C)c(OC(F)(F)F)cc3F)cn12 [Compound 42, 3-[difluoro(methoxy)methyl]-6-[2-fluoro-5-methyl-4-(trifluoromethoxy)phenyl]-[1,2,4]triazolo[4,3-a]pyrazine] | > 70% |
| COC(F)(F)c1nnc2cnc(-c3ccc(OC4CC(F)(F)C4)cc3C)cn12 [Compound 39, 6-[4-(3,3-difluorocyclobutoxy)-2-methyl-phenyl]-3-[difluoro(methoxy)methyl]-[1,2,4]triazolo[4,3-a]pyrazine] | 30 to 70% |
| COCc1nnc2ccc(-c3ccc(OC(F)(F)F)cc3C)nn12 [Compound 8, 3-(methoxymethyl)-6-[2-methyl-4-(trifluoromethoxy)phenyl]-[1,2,4]triazolo[4,3-b]pyridazine] | 30 to 70% |
| CCOCc1nnc2cnc(-c3ccc(OC(F)(F)F)cc3C)cn12 [Compound 5, 3-(ethoxymethyl)-6-[2-methyl-4-(trifluoromethoxy)phenyl]-[1,2,4]triazolo[4,3-a]pyrazine] | 30 to 70% |
| CCOC(F)(F)c1nnc2cnc(-c3ccc(OC(F)(F)F)cc3C3CC3)cn12 [Compound 34, 6-[2-cyclopropyl-4-(trifluoromethoxy)phenyl]-3-[ethoxy(difluoro)methyl]-[1,2,4]triazolo[4,3-a]pyrazine] | > 70% |

Now from value to compound:

| inhibition at 1 µM | SMILES |
| --- | --- |
| 30 to 70% | COC(F)(F)c1nnc2cnc(-c3ccc(O[C@@H](C)C(F)(F)F)cc3C)cn12 (single isomer, unassigned) [Compound 28] |
| 30 to 70% | Cc1cc(OC(F)(F)F)ccc1-c1cn2c(C(F)(F)OC(C)C)nnc2cn1 [Compound 10, 3-(difluoro(isopropoxy)methyl)-6-(2-methyl-4-(trifluoromethoxy)phenyl)-[1,2,4]triazolo[4,3-a]pyrazine] |
| > 70% | CCOC(F)(F)c1nnc2cnc(-c3ccc(OC(F)(F)F)cc3COC)cn12 [Compound 19, 3-[ethoxy (difluoro)methyl]-6-[2-(methoxymethyl)-4-(trifluoromethoxy)phenyl]-[1,2,4] triazolo [4,3-a] pyrazine] |
| 30 to 70% | COC(F)(F)c1nnc2cnc(-c3ccc(OC(F)(F)F)cc3COC3CC3)cn12 [Compound 35, 6-[2-(cyclopropoxymethyl)-4-(trifluoromethoxy)phenyl]-3-[difluoro(methoxy)methyl]-[1,2,4]triazolo[4,3-a]pyrazine] |
| < 30% | CO[C@H](C)c1cc(OC(F)(F)F)ccc1-c1cn2c(C(F)(F)OC)nnc2cn1 (single isomer, unassigned) [Compound 31] |
| 30 to 70% | Cc1cc(OC(F)(F)F)ccc1-c1cn2c(C(F)(F)OC3CC3)nnc2cn1 [Compound 12, 3-[cyclopropoxy(difluoro)methyl]-6-[2-methyl-4-(trifluoromethoxy)phenyl]-[1,2,4]triazolo[4,3-a]pyrazine] |
| > 70% | CCOC(F)(F)c1nnc2cnc(-c3ccc(OC(F)(F)F)cc3C)cn12 [Compound 4, 3-[ethoxy(difluoro)methyl]-6-[2-methyl-4-(trifluoromethoxy)phenyl]-[1,2,4]triazolo[4,3-a]pyrazine] |
| > 70% | COCc1cc(OC(F)(F)F)ccc1-c1cn2c(C(F)(F)OC)nnc2cn1 [Compound 1, 3-[difluoro(methoxy)methyl]-6-[2-(methoxymethyl)-4-(trifluoromethoxy)phenyl]-[1,2,4]triazolo[4,3-a]pyrazine] |
| 30 to 70% | COC(F)(F)c1nnc2cnc(-c3ccc(O[C@H](C)C(F)(F)F)cc3C)cn12 (single isomer, unassigned) [Compound 27] |
| < 30% | CO[C@@H](C)c1cc(OC(F)(F)F)ccc1-c1cn2c(C(F)(F)OC)nnc2cn1 (single isomer, unassigned) [Compound 32] |
| > 70% | CCc1cc(OC(F)(F)F)ccc1-c1cn2c(C(F)(F)OC)nnc2cn1 [Compound 26, 3-[difluoro(methoxy)methyl]-6-[2-ethyl-4-(trifluoromethoxy)phenyl]-[1,2,4]triazolo[4,3-a]pyrazine] |
